The results in this text go back to ChEMBL document CHEMBL3271994, “Diethyl (4baalpha,4calpha,9aalpha,9balpha)-3,6-dichlorocyclobuta[1,2-b:3,4-b']bisbenzofuran-9a,9b(4bH,4cH)-dicarboxylate: the cis,syn photodimer of ethyl 5-chlorobenzofuran-2-carboxylate, an analogue related to the antilipidemic drug clofibrate” (J Med Chem, 1978).

Active and inactive are the calls of the source. No cut-off for these calls is given here.

Series [1] has as its system Rattus norvegicus. The series can be described thus: Effect on cytochrome P450 level in sucrose-fed Sprague-Dawley rat model assessed per mg of protein at 0.2 mmol/kg, po bid administered for 7 days measured after 12 hrs post last dose relative to control. It counts as ADME, organism-based. The note with it: in vivo.
Series [2] concerns Rattus norvegicus. The series can be described thus: Effect on cytochrome b5 level in sucrose-fed Sprague-Dawley rat model assessed per mg of protein at 0.2 mmol/kg, po bid administered for 7 days measured after 12 hrs post last dose (reference value: 0.184 +/- 0.023 nmol). It counts as ADME, organism-based. As to conditions: in vivo.
Series [3] concerns Rattus norvegicus. The series can be described thus: Antilipidemic activity in sucrose-fed Sprague-Dawley rat model assessed as reduction of liver cholesterol level at 0.2 mmol/kg, po bid administered for 7 days measured after 12 hrs post last dose (reference value: 1.86 +/- 0.17 mg/gm). It counts as functional.
In series [4] the test system is Rattus norvegicus. The series can be described thus: Antilipidemic activity in sucrose fed Sprague-Dawley rat model assessed as serum triglyceride level at 0.4 mmol/kg, po bid administered for 7 days measured after 12 hrs post last dose (reference value: 91.9 +/- 19.8 mg/dL). It is filed as functional.
Series [5] has as its system Rattus norvegicus. Put plainly: Increase in liver to body weight ratio in sucrose-fed Sprague-Dawley rat model at 0.2 mmol/kg, po bid administered for 7 days measured after 12 hrs post last dose (reference value: 4.07 +/- 0.28 %). It is filed as ADME, organism-based. As to conditions: in vivo.
Series [6] concerns Rattus norvegicus. The series can be described thus: Increase in NADPH cytochrome c reductase activity in sucrose-fed Sprague-Dawley rat model at 0.2 mmol/kg, po bid administered for 7 days measured after 12 hrs post last dose relative to control. The note with it: in vivo. It counts as ADME, organism-based.
Series [7] deals with Rattus norvegicus. The series can be described thus: Antilipidemic activity in sucrose fed Sprague-Dawley rat model assessed as serum cholesterol level at 0.4 mmol/kg, po bid administered for 7 days measured after 12 hrs post last dose (reference value: 61.7 +/- 11.6 mg/dL). It counts as functional.
In series [8] the test system is Rattus norvegicus. Put plainly: Increase in microsomal protein level in sucrose-fed Sprague-Dawley rat model at 0.4 mmol/kg, po bid administered for 7 days measured after 12 hrs post last dose (reference value: 32.7 +/- 2.2 mg/gm). As to conditions: in vivo. It is filed as ADME, organism-based.
In series [9] the test system is Rattus norvegicus. The series can be described thus: Antilipidemic activity in sucrose-fed Sprague-Dawley rat model assessed as reduction of liver cholesterol level at 0.4 mmol/kg, po bid administered for 7 days measured after 12 hrs post last dose (reference value: 1.86 +/- 0.17 mg/gm). It is filed as functional.
Series [10] concerns Rattus norvegicus. Put plainly: Increase in microsomal protein level in sucrose-fed Sprague-Dawley rat model at 0.2 mmol/kg, po bid administered for 7 days measured after 12 hrs post last dose (reference value: 32.7 +/- 2.2 mg/gm). It is filed as ADME, organism-based. The note with it: in vivo.
Series [11] concerns Rattus norvegicus. The series can be described thus: Antilipidemic activity in sucrose-fed Sprague-Dawley rat model assessed as reduction in HMG-CoA reductase activity at 0.2 mmol/kg, po bid administered for 7 days measured after 12 hrs post last dose relative to control. It counts as functional.
Series [12] concerns Rattus norvegicus. The series can be described thus: Increase in liver to body weight ratio in sucrose-fed Sprague-Dawley rat model at 0.4 mmol/kg, po bid administered for 7 days measured after 12 hrs post last dose (reference value: 4.07 +/- 0.28 %). It is filed as ADME, organism-based. As to conditions: in vivo.
Series [13] concerns Rattus norvegicus. The series can be described thus: Antilipidemic activity in purina chow fed Sprague-Dawley rat assessed as reduction of serum triglyceride level at 0.124 mM/kg relative to control. It is filed as functional. Further details: scale not given: the % may be the effect or the level left.
Series [14] has as its system Rattus norvegicus. Put plainly: Increase in liver weight in sucrose-fed Sprague-Dawley rat model at 0.4 mmol/kg, po bid administered for 7 days measured after 12 hrs post last dose (reference value: 11.76 +/- 1.32 gm). It is filed as ADME, organism-based. As to conditions: in vivo.
Series [15] concerns Rattus norvegicus. Put plainly: Antilipidemic activity in sucrose-fed Sprague-Dawley rat model assessed as reduction of liver triglyceride level at 0.4 mmol/kg, po bid administered for 7 days measured after 12 hrs post last dose relative to control. It counts as functional.
In series [16] the test system is Rattus norvegicus. The series can be described thus: Antilipidemic activity in sucrose-fed Sprague-Dawley rat model assessed as reduction in HMG-CoA reductase activity at 0.4 mmol/kg, po bid administered for 7 days measured after 12 hrs post last dose relative to control. It counts as functional.
Series [17] relates to Rattus norvegicus. Put plainly: Increase in NADPH cytochrome c reductase activity in sucrose-fed Sprague-Dawley rat model at 0.2 mmol/kg, po bid administered for 7 days measured after 12 hrs post last dose (reference value: 148.7 +/- 17.7 nmol/mg/min). It counts as ADME, organism-based. The note with it: in vivo.
Series [18] concerns Rattus norvegicus. Put plainly: Antilipidemic activity in triton WR-1339-induced hyperlipidemic Sprague-Dawley rat model assessed as reduction of serum triglyceride level at 0.124 mM/kg relative to control. Further details: scale not given: the % may be the effect or the level left. It counts as functional.
Series [19] has as its system Rattus norvegicus. Put plainly: Antilipidemic activity in sucrose fed Sprague-Dawley rat model assessed as serum triglyceride level at 0.2 mmol/kg, po bid administered for 7 days measured after 12 hrs post last dose (reference value: 91.9 +/- 19.8 mg/dL). It counts as functional.
Series [20] has as its system Rattus norvegicus. The series can be described thus: Increase in ethylmorphine N-demethylase activity in sucrose-fed Sprague-Dawley rat model at 0.2 mmol/kg, po bid administered for 7 days measured after 12 hrs post last dose relative to control. It counts as ADME, organism-based. As to conditions: in vivo.
Series [21] relates to Rattus norvegicus. Put plainly: Antilipidemic activity in triton WR-1339-induced hyperlipidemic Sprague-Dawley rat model assessed as reduction of plasma lipid level at 0.124 mM/kg measured 43 hrs after triton WR-1339 challenge.
Series [22] relates to Rattus norvegicus. The series can be described thus: Antilipidemic activity in purina chow fed Sprague-Dawley rat assessed as reduction of serum cholesterol level at 0.124 mM/kg relative to control. It counts as functional. Also noted: scale not given: the % may be the effect or the level left.
Series [23] relates to Rattus norvegicus. The series can be described thus: Antilipidemic activity in triton WR-1339-induced hyperlipidemic Sprague-Dawley rat model assessed as reduction of serum cholesterol level at 0.124 mM/kg relative to control. It counts as functional. Also noted: scale not given: the % may be the effect or the level left.
The subject of series [24] is Rattus norvegicus. Put plainly: Antilipidemic activity in sucrose fed Sprague-Dawley rat model assessed as serum cholesterol level at 0.2 mmol/kg, po bid administered for 7 days measured after 12 hrs post last dose (reference value: 61.7 +/- 11.6 mg/dL). It is filed as functional.
Series [25] has as its system Rattus norvegicus. Put plainly: Increase in liver weight in sucrose-fed Sprague-Dawley rat model at 0.2 mmol/kg, po bid administered for 7 days measured after 12 hrs post last dose (reference value: 11.76 +/- 1.32 gm). It is filed as ADME, organism-based. The note with it: in vivo.
Series [26] has as its system Rattus norvegicus. The series can be described thus: Effect on cytochrome P450 level in sucrose-fed Sprague-Dawley rat model assessed per mg of protein at 0.2 mmol/kg, po bid administered for 7 days measured after 12 hrs post last dose (reference value: 0.361 +/- […] nmol). It counts as ADME, organism-based. The note with it: in vivo.
Series [27] concerns Rattus norvegicus. Put plainly: Effect on cytochrome b5 level in sucrose-fed Sprague-Dawley rat model assessed per mg of protein at 0.4 mmol/kg, po bid administered for 7 days measured after 12 hrs post last dose (reference value: 0.184 +/- 0.023 nmol). It counts as ADME, organism-based. The note with it: in vivo.
Series [28] deals with Rattus norvegicus. Put plainly: Antilipidemic activity in sucrose-fed Sprague-Dawley rat model assessed as reduction of liver triglyceride level at 0.2 mmol/kg, po bid administered for 7 days measured after 12 hrs post last dose relative to control. It is filed as functional.
The subject of series [29] is Rattus norvegicus. Put plainly: Effect on cytochrome P450 level in sucrose-fed Sprague-Dawley rat model assessed per mg of protein at 0.4 mmol/kg, po bid administered for 7 days measured after 12 hrs post last dose relative to control. It is filed as ADME, organism-based. The note with it: in vivo.
The test system of series [30] is Rattus norvegicus. Put plainly: Increase in NADPH cytochrome c reductase activity in sucrose-fed Sprague-Dawley rat model at 0.4 mmol/kg, po bid administered for 7 days measured after 12 hrs post last dose relative to control. It is filed as ADME, organism-based. As to conditions: in vivo.
Series [31] concerns Rattus norvegicus. Put plainly: Increase in ethylmorphine N-demethylase activity in sucrose-fed Sprague-Dawley rat model at 0.4 mmol/kg, po bid administered for 7 days measured after 12 hrs post last dose relative to control. It counts as ADME, organism-based. As to conditions: in vivo.

On to `CCOC(=O)[C@@]12Oc3ccc(Cl)cc3[C@@H]1[C@@H]1c3cc(Cl)ccc3O[C@@]12C(=O)OCC`, for which the Activity in the series with Rattus norvegicus [1] was found to be 138%; with Rattus norvegicus [2], 0.179 nmol; in the series with Rattus norvegicus [3], 1.98 mg/g; with Rattus norvegicus [4] it was 102.7 mg/dL; in the series with Rattus norvegicus [5], 3.69%; in the series on Rattus norvegicus [6] it was 123%. Besides, the Activity with Rattus norvegicus [7] was 81 mg/dL; in the series with Rattus norvegicus [8], 38.2 mg/g; with Rattus norvegicus [9] it was 2.1 mg/g; with Rattus norvegicus [10], 41.4 mg/g; with Rattus norvegicus [11], 2.42 nmol/mg/h; with Rattus norvegicus [12] it was 4.03%. Also, the Activity in the series with Rattus norvegicus [13] came to 24.3%; in the series on Rattus norvegicus [14], 11.99 g; in the series on Rattus norvegicus [15], 12.34 mg/g; in the series with Rattus norvegicus [16], 2.41 nmol/mg/h; with Rattus norvegicus [17], 168.7 nmol/mg/min; in the series on Rattus norvegicus [18], 33%. In addition, the Activity with Rattus norvegicus [19] is 70.2 mg/dL; in the series on Rattus norvegicus [20], 157%; with Rattus norvegicus [22] it was 63.9%; in the series with Rattus norvegicus [23], 176.7%; with Rattus norvegicus [24], 69.5 mg/dL; in the series on Rattus norvegicus [25], 11.24 g. The Activity in the series with Rattus norvegicus [26] is on record as 0.386 nmol; with Rattus norvegicus [27], 0.19 nmol; in the series with Rattus norvegicus [28], 8.09 mg/g. For the same compound, the result in the series with Rattus norvegicus [21] was inactive.

On to `CCOC(=O)C(C)(C)Oc1ccc(Cl)cc1` [CLOFIBRATE], for which the Activity in the series on Rattus norvegicus [4] was determined as 26.9 mg/dL; in the series with Rattus norvegicus [7], 31.7 mg/dL; in the series with Rattus norvegicus [8], 39.3 mg/g; in the series with Rattus norvegicus [9], 1.84 mg/g; with Rattus norvegicus [29] it was 262%; in the series with Rattus norvegicus [12] it was 5.24%. Besides, the Activity with Rattus norvegicus [13] worked out at 24.1%; in the series with Rattus norvegicus [14] it was 14.3 g; in the series on Rattus norvegicus [15] it was 3.21 mg/g; with Rattus norvegicus [16], 2.1 nmol/mg/h; with Rattus norvegicus [18], 22.3%; in the series with Rattus norvegicus [30], 163%. Moreover, the Activity was 87% in the series on Rattus norvegicus [22], 93.2% in the series on Rattus norvegicus [23], 0.2 nmol in the series with Rattus norvegicus [27] and 180% with Rattus norvegicus [31]. For the same compound, the result with Rattus norvegicus [21] was inactive.
